The term logP denotes the decadic logarithm of the partition coefficient of the neutral form, usually between octanol and water. Read a high logP as higher lipophilicity. Usually logD stands for the decadic logarithm of the distribution of all forms, ionised or not, between an organic phase and buffer at a given pH. Read a high logD as a more lipophilic compound. The term pKa denotes the negative logarithm of the acid dissociation constant. A lower pKa goes with a group that gives up its proton readily.

Data set [1] can be described thus: Partition coefficient of the compound (logP). The following applies: octanol/water.
The nature of data set [2]: Distribution coefficient of the compound at pH 7.4 (logD). The following applies: octanol/water.
Data set [3] can be described thus: The ionization constant (pKa) for the compound.

With `CN(C)CCCNC(=O)c1cc(NC(=O)c2cc(NC(=O)c3cc(NC(=O)c4cc(NC(=O)c5cc(NC(=O)c6cc(NC(=O)CCCN(C)C)cn6C)cn5C)cn4C)cn3C)cn2C)cn1C`, in data set [1], the logP is 4.68. The compound also returned a logD in data set [2] of 0.47. Besides, the pKa in data set [3] came to 9.5.

`CN(C)CCCNC(=O)c1cc(NC(=O)c2cc(NC(=O)CNC(=O)c3cccc(C(=O)NCC(=O)Nc4cc(C(=O)Nc5cc(C(=O)NCCCN(C)C)n(C)c5)n(C)c4)c3)cn2C)cn1C` returned a lipophilicity (logP) in data set [1] of 1.47. This compound showed a logD in data set [2] of -2.74. Also, the pKa in data set [3] stood at 9.5.

On to `Cn1cc(NC(=O)c2cc(NC(=O)c3cc(NC=O)cn3C)cn2C)cc1C(=O)NCCC(=N)N` [STALLIMYCIN], for which the logP in data set [1] is -0.87. Further, in data set [2], the pH-dependent lipophilicity (logD) is reported as -5.87. Also, in data set [3], the pKa was 12.4.

Consider `CN(C)CCCNC(=O)c1cc(NC(=O)c2cc(NC(=O)c3cc(NC=O)cn3C)cn2C)cn1C`, for which the log partition coefficient (logP) in data set [1] was determined as 2.17. Also, the logD in data set [2] worked out at 0.07. In data set [3], this compound had a pKa of 9.5.

`CN(C)CCCNC(=O)c1cc(NC(=O)c2cc(NC(=O)/C=C/C(=O)Nc3cc(C(=O)Nc4cc(C(=O)NCCCN(C)C)n(C)c4)n(C)c3)cn2C)cn1C` displayed a logP in data set [1] of 3.18. The compound further came in with a pH-dependent lipophilicity (logD) in data set [2] of -1.03. Further, the pKa in data set [3] came to 9.5.

In data set [1], `CN(C)CCCNC(=O)c1cc(NC(=O)c2cc(NC(=O)c3cc(NC(=O)c4cc(NC(=O)c5cc(NC(=O)CCCN(C)C)cn5C)cn4C)cn3C)cn2C)cn1C` returned a logP of 3.89. Further, the pH-dependent lipophilicity (logD) in data set [2] is -0.32. The pKa in data set [3] stood at 9.5.
